This is an account of results in US9512074B2, “Radiolabeled inhibitors of the amino acid transporters ASCT1 and ASCT2” (The University of Montana, priority 2011, dated 2016).

In one assay the target is T1, murine ASCT2 (Mus musculus, UniProt P51912).
T1 construct: expressed in transfected cells; host or cells: Xenopus laevis oocytes (cRNA microinjection)
T1 sequence (P51912 1-553): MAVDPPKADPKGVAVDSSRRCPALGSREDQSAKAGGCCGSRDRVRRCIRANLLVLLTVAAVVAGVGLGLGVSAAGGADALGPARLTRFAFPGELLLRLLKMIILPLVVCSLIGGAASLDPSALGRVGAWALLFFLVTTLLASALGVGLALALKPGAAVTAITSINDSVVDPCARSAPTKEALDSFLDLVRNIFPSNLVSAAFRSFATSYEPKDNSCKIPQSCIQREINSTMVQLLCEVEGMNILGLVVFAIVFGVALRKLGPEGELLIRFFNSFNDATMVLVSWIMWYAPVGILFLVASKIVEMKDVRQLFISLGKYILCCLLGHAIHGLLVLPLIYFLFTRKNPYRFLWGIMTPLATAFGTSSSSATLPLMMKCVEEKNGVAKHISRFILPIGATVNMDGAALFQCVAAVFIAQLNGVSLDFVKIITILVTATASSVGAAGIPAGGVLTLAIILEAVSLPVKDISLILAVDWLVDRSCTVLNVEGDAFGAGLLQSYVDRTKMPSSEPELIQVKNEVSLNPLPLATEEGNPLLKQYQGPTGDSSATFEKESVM
Briefly: Inhibition of anion leak current, two-electrode voltage clamp in Xenopus oocytes expressing mouse ASCT2. The assay is classed as cell-based. The following applies: for Ki: Xenopus oocytes expressing mouse ASCT2, held at −20 mV, * = actual Ki, others Ki estimates. Here is the method:
(§1) Human ASCT1 and murine ASCT2 cRNA were microinjected in stage V-VI oocytes. Uncoupled anion currents associated with the transport of substrate were recorded 3-5 days later as previously described (Zerangue & Kavanaugh, 1996). Recording solution contained 50 mM NaCl, 50 mM NaSCN, 2 mM KCl, 1 mM MgCl2, 1.8 mM CaCl2, and 5 mM HEPES (pH 7.4). Using two-electrode voltage clamp (TEVC), oocytes were held at −20 mV. Microelectrodes were filled with 3M KCl and had resistances from 1 to 3 MΩ. Recordings were performed at 22° C. with a Geneclamp 500 amplifier connected to a PowerLab 2/26 (AD instruments). The digital output was interfaced to a MacBook Pro (Macintosh) using Chart v7.1.2 software. The currents were low-pass filtered at 10 Hz and acquired at 20 Hz. Data was analyzed offline and modeling and fitting of substrate concentration-dependence of the currents was performed with Kaleidagraph software (v 4.04). The concentration dependent percent block of the anion leak or substrate activation of the anion current were fit with the Michaelis-Menten equation (Ianion=Imax×[Drug]/(Km+[Drug])) to define the Ki of inhibition or the apparent affinity (Km) of transport, respectively.

The next assay concerns the target T2, Human ASCT1 (Homo sapiens, UniProt P43007).
T2 construct: expressed in transfected cells; host or cells: Xenopus laevis oocytes (cRNA microinjection)
T2 sequence (P43007 1-532): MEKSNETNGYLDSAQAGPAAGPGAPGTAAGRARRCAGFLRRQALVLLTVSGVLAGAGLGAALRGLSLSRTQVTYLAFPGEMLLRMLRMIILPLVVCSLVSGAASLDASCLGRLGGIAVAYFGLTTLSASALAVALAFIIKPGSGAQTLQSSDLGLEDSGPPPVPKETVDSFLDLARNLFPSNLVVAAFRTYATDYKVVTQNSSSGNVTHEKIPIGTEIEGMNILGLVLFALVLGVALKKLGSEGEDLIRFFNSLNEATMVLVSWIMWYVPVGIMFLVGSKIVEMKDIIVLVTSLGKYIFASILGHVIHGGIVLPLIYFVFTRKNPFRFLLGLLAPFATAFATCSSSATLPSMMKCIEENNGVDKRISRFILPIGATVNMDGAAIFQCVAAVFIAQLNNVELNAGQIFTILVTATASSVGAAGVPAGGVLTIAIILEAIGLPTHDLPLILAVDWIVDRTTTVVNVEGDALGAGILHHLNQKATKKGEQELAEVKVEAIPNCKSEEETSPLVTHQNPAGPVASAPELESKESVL
Briefly: Inhibition of anion leak current, two-electrode voltage clamp in Xenopus oocytes expressing human ASCT1. It is filed as cell-based. The following applies: for Ki: Xenopus oocytes expressing human ASCT1, held at −20 mV, * = actual Ki, others Ki estimates, read-out: Ki (μM) ACST1. How it is done:
as §1

[1] abbreviates: 300 μM, −20 mV, opposite the current induced by substrate.

Molecules are shown by their SMILES.

What is called Ki is a dissociation constant, usually derived from enzyme kinetics or from competition with a known ligand. `O=C(O)[C@H]1NC[C@@H](OCc2cccc3ccccc23)[C@@H]1O` [CSE132]: the Ki on murine ASCT2 and at Human ASCT1 was around 10 µM each time.

On to `O=C(O)[C@H]1NC[C@@H](OCc2ccc(-c3ccccc3)cc2)[C@@H]1O` [CSE131, (2S,3R,4R)-3-hydroxy-4-o-methyl-p-biphenyl-proline], for which the Ki on murine ASCT2 is 0.24 µM; at Human ASCT1, 0.31 µM.

Turning to `C[C@@H]1CN[C@H](C(=O)O)[C@H]1O` [CSE110], the values for the Ki on murine ASCT2 and on Human ASCT1 were 1150 µM and 1050 µM, respectively.

`O=C(O)[C@H]1NC[C@H](O)[C@H]1Oc1ccccc1` [CSE117, (2S,3S,4S)-3-phenoxy-4-hydroxy-proline]: the inhibition constant (Ki) at murine ASCT2 was 502 µM; on Human ASCT1, 594 µM.

With `O=C(O)[C@H]1NC[C@@H](c2ccccc2)[C@@H]1O` [CSE104, (2S,3S,4R)-3-hydroxy-4-phenyl-proline], the Ki on murine ASCT2 and at Human ASCT1 was above 500 µM throughout.

As to `O=C(O)[C@H]1NC[C@H](OCc2ccccc2)[C@H]1O` [CSE113, cis-3-hydroxy-trans-4-benzyloxy-L-proline], the Ki at murine ASCT2 is 828 µM; on Human ASCT1, 493 µM.

Take `CO[C@@H]1CN[C@H](C(=O)O)[C@H]1O` [CSE115, trans-3-hydroxy-cis-4-methoxy-L-proline]: the Ki at murine ASCT2 was 235 µM; at Human ASCT1, 214 µM.

As to `C[C@]1(O)CN[C@H](C(=O)O)C1` [CSE95, cis-4-methyl-trans-4-hydroxy-L-proline], the Ki on murine ASCT2 was 926 µM; at Human ASCT1 it was above 500 µM.

On to `O=C(O)[C@H]1NC[C@@H](Oc2ccccc2)C1O` (stereo in doubt) [CSE118, (2S,3S,4R)-3-hydroxy-4-phenoxy-proline], for which the values for the Ki at murine ASCT2 and at Human ASCT1 were 141 µM and 150 µM, respectively.

For `CC(C)O[C@H]1CN[C@H](C(=O)O)[C@@H]1O` [CSE127, cis-3-hydroxy-trans-4-isopropoxy-L-proline], the inhibition constant (Ki) at murine ASCT2 and at Human ASCT1 was above 500 µM throughout.

On to `CC(C)O[C@@H]1CN[C@H](C(=O)O)[C@H]1O` [CSE122], for which the Ki at murine ASCT2 is 268 µM; on Human ASCT1 it was 237 µM. Moreover, the “block of leak current in hASCT1 (FIG. 4)” value on Human ASCT1 (setting [1]) is on record as “blocking a leak current”.

Turning to `C[C@H]1[C@@H](C(=O)O)NC[C@@H]1O` [CSE109], the Ki was 922 µM on murine ASCT2 and 564 µM on Human ASCT1.

As to `O=C(O)[C@H]1NC[C@H](O)[C@H]1c1ccccc1` [CSE103, (2S,3S,4R)-3-phenyl-4-hydroxy-proline], the Ki was 1130 µM on murine ASCT2 and 332 µM at Human ASCT1.

Regarding `CO[C@H]1CN[C@H](C(=O)O)[C@@H]1O` [CSE124], the Ki on murine ASCT2 is 600 µM; at Human ASCT1, 481 µM.

Take `O=C(O)[C@H]1NC[C@@H](OCc2ccccc2)[C@@H]1O` [CSE121, trans-3-hydroxy-cis-4-benzyloxy-L-proline]: the “block of leak current in mASCT2 (FIG. 4)” value on murine ASCT2 (setting [1]) was “blocking a leak current”. Moreover, the values for the Ki on murine ASCT2 and on Human ASCT1 were 69 µM and 39 µM, respectively.

`O=C(O)[C@@H]1C[C@H](O)CN1` [CSE111]: the Ki on murine ASCT2 was 872 µM; at Human ASCT1, 805 µM.

Take `O=C(O)[C@H]1NC[C@@H](OCc2cccc(Oc3ccccc3)c2)[C@@H]1O` [CSE130]: the results for the Ki on murine ASCT2 and at Human ASCT1 were 10 µM and 13 µM, respectively.

Take `C[C@@]1(O)CN[C@H](C(=O)O)C1` [CSE96, cis-4-hydroxy-trans-4-methyl-L-proline]: the inhibition constant (Ki) was 1080 µM at murine ASCT2 and above 500 µM at Human ASCT1.
